Laboratory results: US20180235213A1, “PLANT HORMONE APPLICATION” (The State of Israel Ministry of Agriculture & Rural …, priority 2015, published 2018)

Experiments:
Pomegranate = experiment: EGO10 collar application to pomegranate in commercial nursery; format: in vivo, Punica granatum; conditions: 50 μM as collar in Eppendorf tubes
Method: Two replicates on experiments were performed in commercial nursery.

Picual olives = experiment: Application of strigolactone analogs by irrigation to olive seedlings; format: in vivo, Olea europaea L.; conditions: irrigation to roots twice a week for 6 weeks, 0.03 and 0.3 μM, vs control
Method: The effect of application of various analogues of strigolactone (SL) on olives, given to roots by irrigation was examined. Three different SL analogs; […] The seedlings were rooted from cuttings and hardened, and were about 6 months old at the time of the experiment. Growth soil mixture was used as in the nursery. Each strigolactone analog was dissolved in acetone to give a 5.6 mM solution. This solution was then further diluted with distilled water to 0.03 and 0.3 μM. The diluted solution was injected to the roots twice a week for 6 weeks, and subsequently all the growing buds were counted. For each treatment (treated and control groups) 10 plants were measured. Experiments were repeated three times.

[1] = test system: Tomato (Shirez, Ikram cultivars); experiment: EGO10 collar, irrigation and granules application to greenhouse tomato; format: in vivo, Solanum lycopersicum; conditions: for side branches: collar of 500 μM; for side branch weight: collars 25 and 50 μM
Description: Greenhouse tomato (Shirez, Ikram and other cultivars) are one of the crops that necessitate vast investment in the constant trimming of side branches. Hand labor is needed for this trimming, on an everyday basis, to avoid significant yield loses. The constant trimming is a cause for infection at trimming sites. […] For these experiments two cultivars of greenhouse tomato were used, Ikram and Shirez, both vigorously producing side branches that should be trimmed under commercial growth conditions.
Also, treatments that include irrigation with 3×10^−6 M (once a week for 6 weeks, 5 ml) and granules application (controlled release at that same concentration of 3×10^−6 M) were applied. Each treatment consisted of 20 plants, blocks of 4 plants were randomly distributed in the greenhouse.
Following, and to increase the possible effect of EGO10 on tomato branching, additional experiment was performed with tomato plants were treated with collar of 500 μM EGO10.

With `CC1=C[C@H](O/C=C2\Cc3c(n(C)c4ccccc34)C2=O)OC1=O` [EGO10] the “number of axillary branches” value (Pomegranate) was “marked and significant reduction in the number of axillary branches”, the “number of growing buds / lateral branches” value (Picual olives) was “repressing effect on axillary branch growth similar to that of GR24” and the “yield determined as number of fruit” value ([1]; Ikram, EGO10 treated plants) was “increased”. The side branches ([1]; Ikram) was “significant reduction in side branches”, the side branch weight ([1]; Ikram) was “reduced to some extent branching” and the side branches ([1]; Shirez) was “did not respond”. The side branch weight ([1]; Shirez, irrigation, granules) was “did not change significantly branching”.
